The target in one assay is T1, human RXFP3 (Homo sapiens, UniProt Q9NSD7).
T1 sequence (Q9NSD7 1-469): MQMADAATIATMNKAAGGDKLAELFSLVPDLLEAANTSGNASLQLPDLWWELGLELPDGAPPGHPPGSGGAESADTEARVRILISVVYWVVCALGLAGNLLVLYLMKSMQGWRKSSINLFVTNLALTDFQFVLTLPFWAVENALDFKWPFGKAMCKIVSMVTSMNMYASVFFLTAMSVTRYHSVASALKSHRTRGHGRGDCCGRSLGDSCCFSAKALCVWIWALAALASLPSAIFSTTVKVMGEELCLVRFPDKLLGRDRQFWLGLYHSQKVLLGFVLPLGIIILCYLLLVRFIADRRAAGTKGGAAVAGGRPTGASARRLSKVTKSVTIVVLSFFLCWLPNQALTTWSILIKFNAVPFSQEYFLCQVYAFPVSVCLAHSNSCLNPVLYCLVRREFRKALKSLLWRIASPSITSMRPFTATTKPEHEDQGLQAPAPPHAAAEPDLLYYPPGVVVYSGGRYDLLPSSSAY
In words: RXFP3 cAMP accumulation assay (inhibition of relaxin-3 activity) in stable CHO human RXFP3 cells.

Another assay has as its target T2, RXFP1 (Homo sapiens, UniProt Q9HBX9).
T2 sequence (Q9HBX9 1-757): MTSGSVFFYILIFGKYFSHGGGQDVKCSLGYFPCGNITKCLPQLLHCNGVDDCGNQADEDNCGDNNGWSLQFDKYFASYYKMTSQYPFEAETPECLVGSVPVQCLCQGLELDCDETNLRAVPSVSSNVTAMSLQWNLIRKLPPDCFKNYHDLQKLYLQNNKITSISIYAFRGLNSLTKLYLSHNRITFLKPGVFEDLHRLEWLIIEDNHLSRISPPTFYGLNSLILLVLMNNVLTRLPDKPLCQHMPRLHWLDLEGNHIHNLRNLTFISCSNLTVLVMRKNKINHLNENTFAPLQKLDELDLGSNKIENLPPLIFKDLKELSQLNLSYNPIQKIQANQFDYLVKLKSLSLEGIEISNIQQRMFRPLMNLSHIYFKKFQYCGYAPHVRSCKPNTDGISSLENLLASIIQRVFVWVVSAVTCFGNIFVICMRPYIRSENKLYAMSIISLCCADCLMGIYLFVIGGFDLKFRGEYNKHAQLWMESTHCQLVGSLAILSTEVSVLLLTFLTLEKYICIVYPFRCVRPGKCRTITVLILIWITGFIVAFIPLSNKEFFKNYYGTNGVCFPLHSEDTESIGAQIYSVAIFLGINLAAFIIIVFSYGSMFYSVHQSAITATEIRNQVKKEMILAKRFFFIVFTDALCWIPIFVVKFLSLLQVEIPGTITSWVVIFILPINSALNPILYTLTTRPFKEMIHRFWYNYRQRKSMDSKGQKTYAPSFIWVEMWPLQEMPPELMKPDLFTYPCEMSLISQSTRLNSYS
In words: Activity at RXFP1 (selectivity). Format: cell-based. Particulars: all concentrations tested up to 30 μM. From the text: It is believed that these compounds represent the first series of small molecule RXFP3 antagonists to be described.

[1] abbreviates: IC50 (functional RXFP3 antagonist), inhibition of relaxin-3 activity, RXFP3-CHO cAMP assay.

Read-outs that look alike come from different tables or passages of the source.

Description for human RXFP3: The assay is based on the competition between a europium chelate-labeled cAMP tracer and unlabeled cAMP produced by cells. […] CHO human RXFP3 cells were cultured in F12 media supplemented with 10% FBS, 100 units/mL penicillin, 100 μg/mL streptomycin, and 400 μg/mL geneticin. Stimulation buffer containing 1×HBSS, 5 mM HEPES (pH 7.4), 0.1% BSA stabilizer, and 0.5 mM IBMX was prepared. A concentration response curve of each test compound was prepared at 4 times the desired final concentration in 4% DMSO/stimulation buffer, and 5 μL was added to the assay plate. […] Forskolin (1 μM) was prepared at 4 times the desired concentration in stimulation buffer, and 5 μL was added to the assay plate. Cells were lifted from flasks with versene and spun at 270 g for 5 min. The cell pellet was resuspended in stimulation buffer and 5000 cells (5 μL) were added to each well. After incubating for 30 min at room temperature, Eu cAMP tracer and uLIGHT-anticAMP working solutions were added per the manufacturer's instructions.

Broadly, the IC50 is the concentration that gives 50% inhibition. Lower therefore signals greater potency. The compound `O=C(Nc1ccc(-c2nc(-c3ccccc3)no2)cc1)C1CC(=O)N(Cc2ccccc2)C1` (stereo not shown) [RLX-2, 1-Benzyl-N-[4-(3-phenyl-1,2,4-oxadiazol-5-yl)phenyl]-5-oxopyrrolidine-3-carboxamide] had an IC50 against human RXFP3 of 7.53 ± 0.998 µM.
Compound `Cc1ccc(-c2noc(-c3ccc(NC(=O)C4CC(=O)N(CCc5ccccc5)C4)cc3)n2)cc1` (stereo not shown) [RLX-4, N-{4-[3-(4-Methylphenyl)-1,2,4-oxadiazol-5-yl]phenyl}-5-oxo-1-(2-phenylethyl)pyrrolidine-3-carboxamide] registered an IC50 at human RXFP3 of over 10 µM.
`Cc1ccc(-c2noc(-c3ccc(NC(=O)C4CC(=O)N(Cc5cccc(C)c5)C4)cc3)n2)cc1` (stereo not shown) [RLX-8, 1-[(3-Methylphenyl)methyl]-N-{4-[3-(4-methylphenyl)-1,2,4-oxadiazol-5-yl]phenyl}-5-oxopyrrolidine-3-carboxamide] registered an IC50 at human RXFP3 of over 10 µM.
`Cc1ccc(-c2noc(-c3ccc(NC(=O)C4CC(=O)N(Cc5ccccn5)C4)cc3)n2)cc1` (stereo not shown) [RLX-9, N-{4-[3-(4-Methylphenyl)-1,2,4-oxadiazol-5-yl]phenyl}-5-oxo-1-[(pyridin-2-yl)methyl]-pyrrolidine-3-carboxamide] registered an IC50 against human RXFP3 of 4.81 ± 0.682 µM.
On the same count and under the same terms, the value for `Cc1ccc(-c2noc(-c3ccc(NC(=O)C4CC(=O)N(Cc5cccnc5)C4)cc3)n2)cc1` (stereo not shown) [RLX-10, N-{4-[3-(4-Methylphenyl)-1,2,4-oxadiazol-5-yl]phenyl}-5-oxo-1-[(pyridin-3-yl)methyl]-pyrrolidine-3-carboxamide] was 2.35 ± 0.248 µM; that for `Cc1ccc(-c2noc(-c3ccc(NC(=O)C4CC(=O)N(C)C4)cc3)n2)cc1` (stereo not shown) [RLX-15, 1-Methyl-N-{4-[3-(4-methylphenyl)-1,2,4-oxadiazol-5-yl]phenyl}-5-oxopyrrolidine-3-carboxamide] was 2.72 ± 0.384 µM; that for `O=C(Nc1ccc(-c2nc(-c3ccccc3)no2)cc1)C1CC(=O)N(Cc2cccnc2)C1` (stereo not shown) [RLX-16, 5-Oxo-N-[4-(3-phenyl-1,2,4-oxadiazol-5-yl)phenyl]-1-[(pyridin-3-yl)methyl]-pyrrolidine-3-carboxamide] was 6.61 ± 0.909 µM.
In turn, `Cc1cccc(-c2noc(-c3ccc(NC(=O)C4CC(=O)N(Cc5cccnc5)C4)cc3)n2)c1` (stereo not shown) [RLX-17, N-{4-[3-(3-Methylphenyl)-1,2,4-oxadiazol-5-yl]phenyl}-5-oxo-1-[(pyridin-3-yl)methyl]-pyrrolidine-3-carboxamide] yielded an IC50 against human RXFP3 of 5.35 ± 1.34 µM.
As to `O=C(Nc1ccc(-c2nc(-c3cccc(F)c3)no2)cc1)C1CC(=O)N(Cc2cccnc2)C1` (stereo not shown) [RLX-19, N-{4-[3-(3-Fluorophenyl)-1,2,4-oxadiazol-5-yl]phenyl}-5-oxo-1-(3-pyridinylmethyl) pyrrolidine-3-carboxamide], the IC50 was found to be 1.34 ± 0.226 µM against human RXFP3 and 1.3 µM against human RXFP3 (setting [1]).
In the case of `O=C(Nc1ccc(-c2nc(-c3ccc(F)cc3)no2)cc1)C1CC(=O)N(Cc2cccnc2)C1` (stereo not shown) [RLX-20, N-{4-[3-(4-Fluorophenyl)-1,2,4-oxadiazol-5-yl]phenyl}-5-oxo-1-[(pyridin-3-yl)methyl]-pyrrolidine-3-carboxamide], half-maximal inhibition at human RXFP3 (IC50) was put at 1.91 ± 0.367 µM.
`O=C(Nc1ccc(-c2nc(-c3ccc(C(F)(F)F)cc3)no2)cc1)C1CC(=O)N(Cc2cccnc2)C1` (stereo not shown) [RLX-21, 5-Oxo-1-[(pyridin-3-yl)methyl]-N-(4-{3-[4-(trifluoromethyl)phenyl]-1,2,4-oxadiazol-5-yl}phenyl)-pyrrolidine-3-carboxamide] gave an IC50 against human RXFP3 of 2.5 ± 0.097 µM.
Turning to `COc1ccc(-c2noc(-c3ccc(NC(=O)C4CC(=O)N(Cc5cccnc5)C4)cc3)n2)cc1` (stereo not shown) [RLX-22, N-{4-[3-(4-Methoxyphenyl)-1,2,4-oxadiazol-5-yl]phenyl}-5-oxo-1-[(pyridin-3-yl)methyl]-pyrrolidine-3-carboxamide], the “IC50 (nM)” value against human RXFP3 (inhibition of relaxin-3 (0.6 nM) activity, forskolin-stimulated cAMP accumulation, CHO human RXFP3 cells, mean ± SEM of at least three independent experiments in duplicate) is on record as “Not active”.
On to `O=C(Nc1ccc(-c2nc(-c3ccc(Cl)cc3)no2)cc1)C1CC(=O)N(Cc2cccnc2)C1` (stereo not shown) [RLX-24, N-{4-[3-(4-Chlorophenyl)-1,2,4-oxadiazol-5-yl]phenyl}-5-oxo-1-[(pyridin-3-yl)methyl]-pyrrolidine-3-carboxamide], for which the figures for the IC50 at human RXFP3 and on human RXFP3 (setting [1]) were 1.25 ± 0.219 µM and 1.2 µM, respectively.
In the case of `O=C(Nc1ccc(-c2nc(-c3ccc(Br)cc3)no2)cc1)C1CC(=O)N(Cc2cccnc2)C1` (stereo not shown) [RLX-25, N-{4-[3-(4-Bromophenyl)-1,2,4-oxadiazol-5-yl]phenyl}-5-oxo-1-[(pyridin-3-yl)methyl]-pyrrolidine-3-carboxamide], the concentration for half-maximal inhibition (IC50) at human RXFP3 was 2.89 ± 0.193 µM.
`O=C(Nc1ccc(-c2nc(-c3ccc(C(F)(F)F)cc3)no2)cc1)C1CC(=O)N(Cc2ccco2)C1` (stereo not shown) [RLX-32, 1-[(Furan-2-yl)methyl]-5-oxo-N-(4-{3-[4-(trifluoromethyl)phenyl]-1,2,4-oxadiazol-5-yl}phenyl)pyrrolidine-3-carboxamide] registered an IC50 at human RXFP3 of 6.68 ± 0.349 µM.
For the compound `O=C(Nc1ccc(-c2nc(-c3ccc(Cl)cc3)no2)cc1)C1CC(=O)N(Cc2ccco2)C1` (stereo not shown) [RLX-33, N-{4-[3-(4-Chlorophenyl)-1,2,4-oxadiazol-5-yl]phenyl}-1-[(furan-2-yl)methyl]-5-oxopyrrolidine-3-carboxamide], the values for the IC50 on human RXFP3 and at human RXFP3 (setting [1]) were 2.88 ± 0.321 µM and 2.9 µM, respectively. The “activity at RXFP1” value at RXFP1 is recorded as “no activity”.
On to `Cc1ccc(-c2noc(-c3ccc(NC(=O)C4CCN(Cc5ccccc5)C4)cc3)n2)cc1` (stereo not shown) [RLX-37, 1-Benyl-N-{4-[3-(4-methylphenyl)-1,2,4-oxadiazol-5-yl]phenyl}-pyrrolidine-3-carboxamide], for which the IC50 at human RXFP3 was over 10 µM.
In turn, `Cc1ccc(-c2noc(-c3ccc(NC(=O)CCNCc4ccccc4)cc3)n2)cc1` [RLX-39, 3-[Benzylamino]-N-{4-[3-(4-methylphenyl)-1,2,4-oxadiazol-5-yl]phenyl}propanamide] registered an IC50 at human RXFP3 of 5.59 ± 0.623 µM.

The values are drawn from patent US20240208955A1 (RESEARCH TRIANGLE INSTITUTE, priority 2021, published 2024).
